Five compounds from patent US8637677B2, “Organic dicarboxylic acids, salts and preparation method thereof” (Southeast University, priority 2009, dated 2014) can be followed below.

The test system of assay [1] is in vitro eye lens of rats. Nature of the assay: resisting oxidative damage to in vitro eye lens of rats induced by H2O2 (lens opacification grading). The class given is cell-based. The settings on record: rat lens; for Comments (improvement versus model group) / Observation Results + (number of lenses with mild opacity, degree I) / Observation Results ++ (number of lenses with moderate opacity, degree II) / Observation Results +++ (number of lenses totally opacified, degree III) / Percentages % + Degree (I) / Percentages % >++ Degrees (II, III): 5% H2O2 + 0.02% FeCl3, 24 h culture, sample and BDL 0.5 mmol/L; for Observation Results + (number of lenses with mild opacity, degree I) / Observation Results ++ (number of lenses with moderate opacity, degree II) / Observation Results +++ (number of lenses totally opacified, degree III) / Percentages % + Degree (I) / Percentages % >++ Degrees (II, III): vitamin C 1 mmol/L; for inhibitory effects on oxidative damage to in vitro eye lens of rats induced by H2O2: sample 0.5 mmol/L, summary of table 2. The text has this: (§1) Some typical compounds are selected for the research on the capability of in vitro resisting oxidative damage to crystalline lens induced by H2O2. The experiments are illustrated as follows:
(§2) Kill rats and rabbits, take out their eyeballs and rinse with saline containing 500 u/mL penicillin, split the eyeball from the posterior to remove eyeball wall and vitreous body, strip off the suspensory ligament, take out the crystalline lens and wash with PBS solution containing 500 u/mL penicillin and 0.5 mg/mL streptomycin for 5 min Before experiment, check with anatomical lens to confirm that there is no opacification or other abnormal condition in the crystalline lens, then place the crystalline lens in the sterilized 12-well plate containing 2 mL DMEM/high glucose (a product from Beijing Thermo Fisher Scientific Biochemical Product Co., Ltd.) sterile culture solution (which contains 100 u/mL penicillin and 0.1 mg/mL streptomycin), add different compounds for screening and pre-culture in a incubator with temperature of 37° C., humidity of 95% and 5% CO2 for 1 h, subsequently add 2 mL DEME culture solution containing H2O2 and FeCl3 (namely, total 4 mL culture solution in each well) (the total concentration of H2O2 in each well is 2% for rabbits, and 5% for rats, and the concentrations of FeCl3 are all 0.02%), culture under the same conditions for 24 hours. The experiments are divided into several groups as below and carried out in batches, with each batch provided with negative control group and model group.
(§3) A. Negative control group: DMEM culture solution without H2O2.
(§4) B. Model group (oxidative damage group): DMEM culture solution containing H2O2 and FeCl3.
(§5) C. Vitamin C group: besides the ingredients of the model group, further containing vitamin C (the final concentration is 1 mmol/L).
(§6) D. Bendazac lysine (BDL) group (BDL is provided by Zhejiang Shapuaisi Pharmaceutical Co. Ltd., and its purity is more than 98.5%): besides the ingredients of model group, further containing BDL (the final concentration is 0.5 mmol/L).
(§7) E. Sample group: besides the ingredients of model group, further containing sample (the final concentration is 0.5 mmol/L).
(§8) Evaluation criteria: according to large amount of experiments on the model group, the ratio between the percentage of different degrees of lens turbidity in the groups and the percentage of different degrees of lens turbidity in the model group is utilized as the definition, wherein, for slight improvement (√), the percentage of ++ (degrees II, III) should be lower than 72%, and the percentage of + (degree I) should be higher than 20%; for moderate improvement (√√) the percentage of ++(degrees II, III) further decreases; and the percentage of 0 (−) appears; for significant improvement (√√√), the percentage of ++ (degrees II, III) and +(degree I) disappears, and the lens are almost transparent.

The test system of assay [2] is in vitro eye lens of rabbits. The experiment in a line: resisting oxidative damage to in vitro eye lens of rabbits induced by H2O2 (lens opacification grading). Type of assay: cell-based. Particulars: rabbit lens; for Observation Results +++ (number of lenses totally opacified, degree III) / Percentages for different degrees % >++ Degrees(I, II) / Observation Results + (number of lenses with mild opacity, degree I) / Observation Results ++ (number of lenses with moderate opacity, degree II) / Percentages for different degrees % + Degree (I) / Comments (improvement versus model group): 2% H2O2 + 0.02% FeCl3, 24 h culture, sample and BDL 0.5 mmol/L; for Observation Results +++ (number of lenses totally opacified, degree III) / Percentages for different degrees % >++ Degrees(I, II) / Observation Results + (number of lenses with mild opacity, degree I) / Observation Results ++ (number of lenses with moderate opacity, degree II) / Percentages for different degrees % + Degree (I): vitamin C 1 mmol/L; for inhibitory effects on oxidative damage to in vitro eye lens of rabbits induced by H2O2: sample 0.5 mmol/L, table 1.
From the text: as §1, §2, §3, §4, §5, §6, §7
as §8, with “lens opacification” for “lens turbidity”, “than 67%,” for “than 72%,”, “than 33%;” for “than 20%;”, “improvement (√√),” for “improvement (√√)”, “and + (degree” for “and +(degree”

Consider `NCCCC[C@H](N)C(=O)O.NCCCC[C@H](N)C(=O)O.O=C(O)C(Oc1nn(Cc2cccc(Cl)c2)c2ccccc12)C(=O)O` [Y19, 2-[1-(3-chloro-benzyl)-1H-indazole-3-oxyl]malonate dilysine], for which, in assay [1], the “Comments (improvement versus model group)” value is listed as “✓”; the “Observation Results + (number of lenses with mild opacity, degree I)” value is 18; the “Observation Results ++ (number of lenses with moderate opacity, degree II)” value worked out at 10; the “Observation Results +++ (number of lenses totally opacified, degree III)” value (from here on “Observation Results +++”) was determined as 4. Also, in assay [1], the “Percentages % + Degree (I)” value is listed as 56%; the “Percentages % >++ Degrees (II, III)” value is recorded as 44%; the “inhibitory effects on oxidative damage to in vitro eye lens of rats induced by H2O2” value (“inhibitory effects … of rats induced by H2O2” below) is “showing inhibitory effects”. In assay [2], the “Observation Results +++” value is given as 3; the “Percentages for different degrees % >++ Degrees(I, II)” value was found to be 100%; the “inhibitory effects on oxidative damage to in vitro eye lens of rabbits induced by H2O2” value was “not significant”.
As for `NCCCC[C@H](N)C(=O)O.NCCCC[C@H](N)C(=O)O.O=C(O)C(Oc1nn(Cc2cccc(F)c2)c2ccccc12)C(=O)O` [Y14, 2-[1-(3-fluoro-benzyl)-1H-indazole-3-oxyl) malonate dilysine], in assay [1], the “Comments (improvement versus model group)” value is “✓”; the “Observation Results + (number of lenses with mild opacity, degree I)” value is given as 10; the “Observation Results ++ (number of lenses with moderate opacity, degree II)” value amounted to 8; the “Percentages % + Degree (I)” value is 56%. Besides, in assay [1], the “Percentages % >++ Degrees (II, III)” value is listed as 44% and the “inhibitory effects … of rats induced by H2O2” value is “showing inhibitory effects”.
For `O=C1O[C@H]([C@@H](O)CO)C(O)=C1O` [VC, vitamin C, reference compound], in assay [1], the “Observation Results + (number of lenses with mild opacity, degree I)” value is listed as 7; the “Observation Results ++ (number of lenses with moderate opacity, degree II)” value was 8; the “Observation Results +++” value worked out at 3; the “Percentages % + Degree (I)” value turned out to be 39%. In addition, in assay [1], the “Percentages % >++ Degrees (II, III)” value turned out to be 61%. In assay [2], the “Observation Results + (number of lenses with mild opacity, degree I)” value is given as 13; the “Observation Results ++ (number of lenses with moderate opacity, degree II)” value is recorded as 16; the “Observation Results +++” value was found to be 2; the “Percentages for different degrees % + Degree (I)” value was found to be 42%. For the same compound, the “Percentages for different degrees % >++ Degrees(I, II)” value in assay [2] is given as 58%.
Take `O=C(O)COc1nn(Cc2ccccc2)c2ccccc12` [BDL, Bendazac lysine, reference compound]: in assay [1], the “Comments (improvement versus model group)” value is on record as “✓”; the “Observation Results + (number of lenses with mild opacity, degree I)” value amounted to 30; the “Observation Results ++ (number of lenses with moderate opacity, degree II)” value is 22; the “Observation Results +++” value turned out to be 3. Further, in assay [1], the “Percentages % + Degree (I)” value is 54% and the “Percentages % >++ Degrees (II, III)” value came to 46%. In assay [2], the “Comments (improvement versus model group)” value was “✓”; the “Observation Results + (number of lenses with mild opacity, degree I)” value was 9; the “Observation Results ++ (number of lenses with moderate opacity, degree II)” value is 3; the “Percentages for different degrees % + Degree (I)” value was determined as 75%. Further, the “Percentages for different degrees % >++ Degrees(I, II)” value in assay [2] amounted to 25%.
Regarding `O=C([O-])C(Oc1nn(Cc2cccc(F)c2)c2ccccc12)C(=O)[O-].[Na+].[Na+]` [Y10, 2-[1-(3-fluoro-benzyl)-1H-indazole-3-oxyl) malonate disodium], in assay [1], the “Comments (improvement versus model group)” value is “✓”; the “Observation Results + (number of lenses with mild opacity, degree I)” value amounted to 47; the “Observation Results ++ (number of lenses with moderate opacity, degree II)” value is recorded as 28; the “Observation Results +++” value is on record as 3. Further, in assay [1], the “Percentages % + Degree (I)” value is 60%; the “Percentages % >++ Degrees (II, III)” value is listed as 40%; the “inhibitory effects … of rats induced by H2O2” value is reported as “not significant”. Moreover, in assay [2], the “Comments (improvement versus model group)” value is listed as “✓”; the “Observation Results + (number of lenses with mild opacity, degree I)” value amounted to 4; the “Observation Results ++ (number of lenses with moderate opacity, degree II)” value stood at 1; the “Percentages for different degrees % + Degree (I)” value was 80%. Further, in assay [2], the “Percentages for different degrees % >++ Degrees(I, II)” value is on record as 20% and the “inhibitory effects on oxidative damage to in vitro eye lens of rabbits induced by H2O2” value is given as “showing inhibitory effects”.
